In patent US5091522A, “Retinoic esters of D-desosamine, process for their preparation and their use in human or veterinary medicine and in cosmetic compositions” (L'Oreal, priority 1989, dated 1992):
≈ marks a conversion by molar mass, not a printed value. Like-named read-outs stand apart in the source and are kept apart here.

Legend:
Type in all cases: cell-based
[1] = system: staphilococcus epidermis ATCC 12228; experiment: Minimum inhibiting concentration (MIC) by dilution method, staphilococcus epidermis ATCC 12228; settings: read-out: minimum concentration (MIC), TABLE I
Text: (§1) The activity of retinoic esters of D-desosamines has been studied by the dilution method to determine the minimum inhibiting concentration (MIC). This method is described and employed by G. A. Denys et al, Antimicrobial Agents and Chemotherapy (1983) 23, 335-337 and J. J. Leyden et al, J.Am.Acad. Dermatol. (1983) 8 (1) 41-5, by using as the Propionibacterium acnes strain, strain P37 furnished by Cunliffe and Holland.
(§2) The minimum concentration (MIC), expressed in μg/ml of the retinoic esters of D-desosamine tested vis-a-vis strains of Propionibacterium acnes P37, P37 E⊕ and P37 E⊖ and staphilococcus epidermis ATCC 12228, is reported in the following table: […]

[2] = system: Propionibacterium acnes P37 E⊖; experiment: Minimum inhibiting concentration (MIC) by dilution method, P. acnes P37 E⊖ (erythromycin-resistant population); settings: Cutibacterium acnes, P37E.CRCLBAR.
Text: as §1
(§3) On the other hand, after 8 successive sub-cultures in the same medium (RCM* 19/20, DMSO 1/20 by volume) with the view of obtaining a progressive stabilization of this strain in this medium, a progressive resistance to erythromycin was manifested in the following form:
(§4) after spreading a standardized inoculum (DO=1.8 at 450 nm) on a gelose medium (RCM+furazolidone), in a Petri dish, a 9 mm diameter disc is deposited at its center. On the disc, 50 μg of erythromycin (in solution in DMSO) are deposited.
(§5) The two types of colonies are then retained by stripping of the gelose medium (sterilized platinum loop):
(1) at the interior of the inhibition zone there are stripped off strains, called P37 E⊖ by reason of their apparent resistance to erythromycin.
(§6) After isolation and culturing, the P37 E⊕ and P37 E⊖ strains effectively show very different sensitivities to erythromycin as illustrated by the following MIC values:
as §2

[3] = system: Propionibacterium acnes P37; experiment: Minimum inhibiting concentration (MIC) by dilution method, P. acnes strain P37
Text: as §1, §2

[4] = system: Propionibacterium acnes P37 E⊕; experiment: Minimum inhibiting concentration (MIC) by dilution method, P. acnes P37 E⊕ (erythromycin-sensitive population); settings: Cutibacterium acnes
Text: as §1, §3, §4, §5
(2) at 1 cm beyond the periphery of the inhibition zone, there are stripped off strains called P37 E⊕.
as §6, §2

[5] = system: Propionibacterium acnes P37 E⊕; experiment: IC 50 (50% survivors among the population at constant culturing time), P37 E⊕; settings: Cutibacterium acnes, read-out: IC 50 (inhibiting concentration at 50%)
Text: (§7) This phenomenon is confirmed by the study of the IC 50 (inhibiting concentration at 50% which represents the concentration of erythromycin where, at a constant culturing time, 50% survivors among the population are found

[6] = system: Propionibacterium acnes P37 E⊖; experiment: IC 50 (50% survivors among the population at constant culturing time), P37 E⊖; settings: Cutibacterium acnes, P37E.CRCLBAR., read-out: IC 50 (inhibiting concentration at 50%)
Text: as §7

[7] = system: Propionibacterium acnes strain P37; experiment: Disc inhibition zone on gelose medium; settings: Cutibacterium acnes, P37, 144 h; 50 μg erythromycin on 9 mm disc; 6 days at 36 C, anaerobic; RCM+furazolidone; after 8 sub-cultures; read-out: inhibition zone of the growth of the strain (total diameter)
Description: as §3, §4
After 6 days at 36.C in an anaerobic medium (GAS-PAK, B.B.L. system) an inhibition zone of the growth of the strain is clearly visible (total diameter =42 mm), the majority of the colonies being situated at the periphery of the inhibition zone.

[8] = system: Propionibacterium acnes P37; experiment: IC 50 (50% survivors among the population at constant culturing time), P37; settings: Cutibacterium acnes, P37, read-out: IC 50 (inhibiting concentration at 50%)
Text: as §7

[9] = read-out: minimum concentration (MIC), TABLE I
[10] = Cutibacterium acnes, P37, read-out: minimum concentration (MIC), TABLE I
[11] = P37E.SYM., P37 E⊕, read-out: minimum concentration (MIC), TABLE I
[12] = Cutibacterium acnes, P37; read-out: minimum concentration (MIC), TABLE I

SMILES | MIC ([1]; ATCC 12228) [µg/mL] | MIC [2, 9] [µg/mL] | MIC [4, 11] [µg/mL] | MIC [3, 12] [µg/mL] | further results
CCCCOC1O[C@H](C)C[C@H](N(C)C)[C@H]1OC(=O)\C=C(C)/C=C/C=C(C)/C=C/C1=C(C)CCCC1(C)C (stereo partly drawn) [Compound 1, O-retinoyl (13 cis)-2-O-butyl-1-α,β-D-desosamine] | 18.5 (≈ 36 µM) | 10.5 (≈ 20.4 µM) | 21 (≈ 40.9 µM) | – | MIC [3, 10]: 10.5 µg/mL (≈ 20.4 µM)
CCCCOC1O[C@H](C)C[C@H](N(C)C)[C@H]1OC(=O)/C=C(C)/C=C/C=C(C)/C=C/C1=C(C)CCCC1(C)C (stereo partly drawn) [Compound 2, O-retinoyl (all trans)-2-O-butyl-1-α-β-D-desosamine] | 3.5 (≈ 6.81 µM) | 9 (≈ 17.5 µM) | 25 (≈ 48.7 µM) | 15 (≈ 29.2 µM) | –
CCCCOC1O[C@H](C)C[C@H](N(C)C)[C@H]1OC(=O)/C=C(C)/C=C/C=C(C)/C=C/c1c(C)cc(OC)c(C)c1C (stereo partly drawn) [Compound 5, O-etretinoyl (all trans)-2-O-butyl-1-α,β-D-desosamine] | 6 (≈ 11.1 µM) | 6 (≈ 11.1 µM) | 6 (≈ 11.1 µM) | 3 (≈ 5.56 µM) | –
CCCCO[C@H]1O[C@H](C)C[C@H](N(C)C)[C@H]1OC(=O)/C=C(C)/C=C/C=C(C)/C=C/c1c(C)cc(OC)c(C)c1C [Compound 6, O-etretinoyl (all trans)-2-O-butyl-1-α-D-desosamine] | 1.5 (≈ 2.78 µM) | 2.1 (≈ 3.89 µM) | 4.3 (≈ 7.97 µM) | 19 (≈ 35.2 µM) | –
CCCCO[C@@H]1O[C@H](C)C[C@H](N(C)C)[C@H]1OC(=O)/C=C(C)/C=C/C=C(C)/C=C/c1c(C)cc(OC)c(C)c1C [Compound 7, O-etretinoyl (all trans)-2-O-butyl-1-β-D-desosamine] | 2.3 (≈ 4.26 µM) | 14.5 (≈ 26.9 µM) | 40 (≈ 74.1 µM) | 5.2 (≈ 9.63 µM) | –
CCCCOC1O[C@H](C)C[C@H](N(C)C)[C@H]1O (stereo partly drawn) [O-butyl-1-α,β-D-desosamine, reference compound] | > 100 | > 110 | > 100 | > 100 | –
CO[C@H]1O[C@H](COC(=O)\C=C(C)/C=C/C=C(C)/C=C/C2=C(C)CCCC2(C)C)[C@@H](O)[C@H](O)[C@H]1O [O-retinoyl (13 cis)-6-O-methyl-1-α-D-glucopyrannose, reference compound] | > 45 | > 45 | > 45 | > 45 | –
CC[C@H]1OC(=O)[C@H](C)[C@@H](O[C@H]2C[C@@](C)(OC)[C@@H](O)[C@H](C)O2)[C@H](C)[C@@H](O[C@@H]2O[C@H](C)C[C@H](N(C)C)[C@H]2O)[C@](C)(O)C[C@@H](C)C(=O)[C@H](C)[C@@H](O)[C@]1(C)O [erythromycin] | – | – | – | – | IC50 [5]: 5 µg/mL (≈ 6.81 µM); IC50 [6]: 100 µg/mL (≈ 136 µM); MIC [2]: 50 µg/mL (≈ 68.1 µM); zone of inhibition at 50 µg/disc [7]: 42 mm; MIC ([3]; Cutibacterium acnes, P37): 0.78 µg/mL (≈ 1.06 µM); MIC [4]: 0.78 µg/mL (≈ 1.06 µM); IC50 [8]: 50 µg/mL (≈ 68.1 µM)
C[C@@H]1C[C@H](N(C)C)[C@@H](O)C(O)O1 (stereo partly drawn) [α,β-D-desosamine, reference compound] | – | > 70 | – | – | MIC [1]: > 50 µg/mL; MIC [3, 10]: > 50 µg/mL; MIC [4, 9]: > 70 µg/mL
